Laboratory results: US20040156869A1, “2-substituted quinazolin-4-ylamine analogues” (Neurogen Corporation, priority 2002, published 2004)

These compounds were tested against human capsaicin receptor (VR1) (Homo sapiens, UniProt Q8NER1) (assay: Capsaicin receptor binding assay ([3H]RTX competition, VR1-transfected HEK293 membranes)). Details: not given.
Sequence of human capsaicin receptor (VR1) (Q8NER1 whole entry): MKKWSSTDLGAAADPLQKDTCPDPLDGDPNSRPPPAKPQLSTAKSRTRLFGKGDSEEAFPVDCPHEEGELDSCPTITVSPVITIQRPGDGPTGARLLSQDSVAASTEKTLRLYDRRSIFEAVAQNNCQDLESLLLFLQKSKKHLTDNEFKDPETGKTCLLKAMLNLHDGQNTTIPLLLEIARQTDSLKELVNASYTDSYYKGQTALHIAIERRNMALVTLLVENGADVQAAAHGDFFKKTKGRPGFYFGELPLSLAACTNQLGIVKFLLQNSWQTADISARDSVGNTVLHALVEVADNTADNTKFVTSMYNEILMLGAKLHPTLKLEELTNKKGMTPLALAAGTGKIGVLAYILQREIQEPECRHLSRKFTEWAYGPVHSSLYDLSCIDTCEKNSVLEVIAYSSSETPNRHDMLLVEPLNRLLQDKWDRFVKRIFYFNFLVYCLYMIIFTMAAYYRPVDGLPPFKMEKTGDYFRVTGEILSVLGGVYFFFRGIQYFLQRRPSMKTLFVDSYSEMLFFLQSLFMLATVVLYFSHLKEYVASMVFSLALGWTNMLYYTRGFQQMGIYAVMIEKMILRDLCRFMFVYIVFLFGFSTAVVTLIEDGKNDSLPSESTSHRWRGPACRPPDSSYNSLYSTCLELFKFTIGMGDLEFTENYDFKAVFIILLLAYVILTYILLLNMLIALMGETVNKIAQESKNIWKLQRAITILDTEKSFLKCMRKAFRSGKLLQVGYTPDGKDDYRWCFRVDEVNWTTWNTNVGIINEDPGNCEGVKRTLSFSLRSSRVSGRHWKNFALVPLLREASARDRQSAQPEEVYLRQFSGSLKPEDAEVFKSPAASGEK

Ki, < 1000 nM:
C[C@@H]1CN(Cc2nc(Nc3ccc(C(C)(C)C)cc3)c3ccc(-c4ncccc4C(F)(F)F)nc3n2)C[C@H](C)O1 [Compound 757, (4-tert-Butyl-phenyl)-[2-(2,6-dimethyl-morpholin-4-ylmethyl)-7-(3-trifluoromethyl-pyridin-2-yl)-pyrido[2,3-d]pyrimidin-4-yl]-amine (cis)]
CC(C)(C)c1ccc(Nc2nc(CN3CCC[C@H]3C(=O)O)nc3nc(-c4ncccc4C(F)(F)F)ccc23)cc1 [Compound 758, (S)-1-[4-(4-tert-Butyl-phenylamino)-7-(3-trifluoromethyl-pyridin-2-yl)-pyrido[2,3-d]pyrimidin-2-ylmethyl]-pyrrolidine-2-carboxylic acid]
O=C(c1nc(Nc2ccc(C(F)(F)F)cc2)c2ccc(-c3ncccc3C(F)(F)F)cc2n1)N1CCCCC1 [Compound 759, Piperidin-1-yl-[4-(4-trifluoromethyl-phenylamino)-7-(3-trifluoromethyl-pyridin-2-yl)-quinazolin-2-yl]I-methanone]
CC(C)CCNC(=O)c1nc(Nc2ccc(C(F)(F)F)cc2)c2ccc(-c3ncccc3C(F)(F)F)cc2n1 [Compound 761, 4-(4-Trifluoromethyl-phenylamino)-7-(3-trifluoromethyl-pyridin-2-yl)-quinazoline-2-carboxylic acid (3-methyl-butyl)-amide]
COCCNC(=O)c1nc(Nc2ccc(C(F)(F)F)cc2)c2ccc(-c3ncccc3C(F)(F)F)cc2n1 [Compound 762, 4-(4-Trifluoromethyl-phenylamino)-7-(3-trifluoromethyl-pyridin-2-yl)-quinazoline-2-carboxylic acid (2-methoxy-ethyl)-amide]
O=C(NCCN1CCCC1)c1nc(Nc2ccc(C(F)(F)F)cc2)c2ccc(-c3ncccc3C(F)(F)F)cc2n1 [Compound 763, 4-(4-Trifluoromethyl-phenylamino)-7-(3-trifluoromethyl-pyridin-2-yl)-quinazoline-2-carboxylic acid (2-pyrrolidin-1-yl-ethyl)-amide]
O=C(O)CNC(=O)c1nc(Nc2ccc(C(F)(F)F)cc2)c2ccc(-c3ncccc3C(F)(F)F)nc2n1 [Compound 764, {[4-(4-Trifluoromethyl-phenylamino)-7-(3-trifluoromethyl-pyridrn-2-yl)-pyrido[2,3-d]pyrimidine-2-carbonyl]-amino}-acetic acid]
O=C(O)CCNC(=O)c1nc(Nc2ccc(C(F)(F)F)cc2)c2ccc(-c3ncccc3C(F)(F)F)nc2n1 [Compound 765, 3-{[4-(4-Trifluoromethyl-phenylamino)-7-(3-trifluoromethyl-pyridin-2-yl)-pyrido[2,3-d]pyrimidine-2-carbonyl]-amino}-propionic acid]
O=C(O)CCCNC(=O)c1nc(Nc2ccc(C(F)(F)F)cc2)c2ccc(-c3ncccc3C(F)(F)F)nc2n1 [Compound 766, 4-{[4-(4-Trifluoromethyl-phenylamino)-7-(3-trifluoromethyl-pyridin-2-yl)-pyrido[2,3-d]pyrimidine-2-carbonyl]-amino}-butyric acid]
O=C(O)C1CCN(C(=O)c2nc(Nc3ccc(C(F)(F)F)cc3)c3ccc(-c4ncccc4C(F)(F)F)nc3n2)CC1 [Compound 767, 1-[4-(4-Trifluoromethyl-phenylamino)-7-(3-trifluoromethyl-pyridin-2-yl)-pyrido[2,3-d]pyrimidine-2-carbonyl]-piperidine-4-carboxylic acid]
O=C(O)[C@@H]1CCCN1C(=O)c1nc(Nc2ccc(C(F)(F)F)cc2)c2ccc(-c3ncccc3C(F)(F)F)nc2n1 [Compound 768, (S)-1-[4-(4-Trifluoromethyl-phenylamino)-7-(3-trifluoromethyl-pyridin-2-yl)-pyrido[2,3-d]pyrimidine-2-carbonyl]-pyrrolidine-2-carboxylic acid]
CN1CCC(c2nc(Nc3ccc(C(C)(C)C)cc3)c3ccc(-c4ncccc4Cl)nc3n2)CC1 [Compound 769, (4-tert-Butyl-phenyl)-[7-(3-chloro-pyridin-2-yl)-2-(1-methyl-piperidin-4-yl)-pyrido[2,3-d]pyrimidin-4-yl]-amine]
CC(C)c1ccc(Nc2nc(C3CCN(C)CC3)nc3nc(-c4ncccc4Cl)ccc23)cc1 [Compound 770, [7-(3-Chloro-pyridin-2-yl)-2-(1-methyl-piperidin-4-yl)-pyrido[2,3-d]pyrimidin-4-yl]-(4-isopropyl-phenyl)-amine]
CN1CCC(c2nc(Nc3ccc(C(F)(F)F)cc3)c3ccc(-c4ncccc4Cl)nc3n2)CC1 [Compound 771, [7-(3-Chloro-pyridin-2-yl)-2-(1-methyl-piperidin-4-yl)-pyrido[2,3-d]pyrimidin-4-yl]-(4-trifluoromethyl-phenyl)-amine]
C[C@@H]1CN(Cc2cc(Nc3ccc(C(F)(F)F)cc3)c3ccc(-c4ncccc4C(F)(F)F)nc3n2)C[C@H](C)O1 [Compound 773, [2-(2,6-Dimethyl-morpholin-4-ylmethyl)-7-(3-trifluoromethyl-pyridin-2-yl)-[1,8]naphthyridin-4-yl]-(4-trifluoromethyl-phenyl)-amine (cis)]
CC1CCCN1Cc1cc(Nc2ccc(C(F)(F)F)cc2)c2ccc(-c3ncccc3C(F)(F)F)nc2n1 (centres unmarked) [Compound 774, [2-(2-Methyl-pyrrolidin-1-ylmethyl)-7-(3-trifluoromethyl-pyridin-2-yl)-[1,8]naphthyridin-4-yl]-(4-trifluoromethyl-phenyl)-amine]
COCCN(CCOC)Cc1cc(Nc2ccc(C(F)(F)F)cc2)c2ccc(-c3ncccc3C(F)(F)F)nc2n1 [Compound 775, [2-{[Bis-(2-methoxy-ethyl)-amino]-methyl}-7-(3-trifluoromethyl-pyridin-2-yl)-[1,8]naphthyridin-4-yl]-(4-trifluoromethyl-phenyl)-amine]
FC(F)(F)c1ccc(Nc2cc(CN3CCCCC3)nc3nc(-c4ncccc4C(F)(F)F)ccc23)cc1 [Compound 799, [2-Piperidin-1-ylmethyl-7-(3-trifluoromethyl-pyridin-2-yl)-[1,8]naphthyridin-4-yl]-(4-trifluoromethyl-phenyl)-amine]
FC(F)(F)c1ccc(Nc2cc(CN3CCOCC3)nc3nc(-c4ncccc4C(F)(F)F)ccc23)cc1 [Compound 800]
FC(F)(F)c1ccc(Nc2cc(CN3CCSCC3)nc3nc(-c4ncccc4C(F)(F)F)ccc23)cc1 [Compound 802, [2-Thiomorpholin-4-ylmethyl-7-(3-trifluoromethyl-pyridin-2-yl)-[1,8]naphthyridin-4-yl]-(4-trifluoromethyl-phenyl)-amine]
CC1CCCCN1Cc1cc(Nc2ccc(C(F)(F)F)cc2)c2ccc(-c3ncccc3C(F)(F)F)nc2n1 (centres unmarked) [Compound 810, [2-(2-Methyl-piperidin-1-ylmethyl)-7-(3-trifluoromethyl-pyridin-2-yl)-[1,8]naphthyridin-4-yl]-(4-trifluoromethyl-phenyl)-amine]
CCC1CCCCN1Cc1cc(Nc2ccc(C(F)(F)F)cc2)c2ccc(-c3ncccc3C(F)(F)F)nc2n1 (centres unmarked) [Compound 812, [2-(2-Ethyl-piperidin-1-ylmethyl)-7-(3-trifluoromethyl-pyridin-2-yl)-[1,8]naphthyridin-4-yl]-(4-trifluoromethyl-phenyl)-amine]
CCN(Cc1cc(Nc2ccc(C(F)(F)F)cc2)c2ccc(-c3ncccc3C(F)(F)F)nc2n1)C1CCCCC1 [Compound 813, [2-[(Cyclohexyl-ethyl-amino)-methyl]-7-(3-trifluoromethyl-pyridin-2-yl)-[1,8]naphthyridin-4-yl]-(4-trifluoromethyl-phenyl)-amine]
FC(F)(F)c1ccc(Nc2cc(CN3CC=CCC3)nc3nc(-c4ncccc4C(F)(F)F)ccc23)cc1 [Compound 816, [2-(3,6-Dihydro-2H-pyridin-1-ylmethyl)-7-(3-trifluoromethyl-pyridin-2-yl)-[1,8]naphthyridin-4-yl]-(4-trifluoromethyl-phenyl)-amine]
CN1CCN(Cc2cc(Nc3ccc(C(F)(F)F)cc3)c3ccc(-c4ncccc4C(F)(F)F)nc3n2)CC1 [Compound 817, [2-(4-Methyl-piperazin-1-ylmethyl)-7-(3-trifluoromethyl-pyridin-2-yl)-[1,8]naphthyridin-4-yl]-(4-trifluoromethyl-phenyl)-amine]

Same assay, conditions: Table III; capsaicin receptor binding

Ki, < 1000 nM:
[2-(2,6-Dimethyl- morpholin-4-ylmethyl)-7- (3-trifluoromethyl-pyridin- 2-yl)-pyrido[3,2- d]pyrimidin-4-yl]-(4- methanesulfonyl-phenyl)- amine (cis) [Compound 584]
